According to PubChem BioAssay AID1963965 (Molecular Pharmacology Branch, DTP, NCI, 2024):
One block for each compound: values may come before it.

Tested on: 996289-038-R-J1-PDC spheroid viability
Assay: Anticancer human tumor 996289-038-R-J1-PDC patient-derived colon adenocarcinoma cell line growth inhibition [PI3K]
Details: spheroids with HUVEC and MSC; for IC50: curve of first compound; for viability, T/C: stronger effect = lower value
Source text: Combinatorial screen of targeted agents with the PI3K inhibitors inavolisib, alpelisib, duvelisib, and copanlisib in multi-cell type tumor spheroids
A high-throughput screen of multi-cell type tumor spheroids was designed to identify active combinations of targeted small molecules and PI3K pathway inhibitors. Complex spheroids include a stromal component modeled by human endothelial cells (HUVEC) and fibroblasts modeled by human mesenchymal stem cells (MSCs). The concentration ranges selected for each drug and investigational agent were based upon clinically achievable concentrations if the clinical Cmax of the agent was known.
Compounds. The drugs and investigational agents: inavolisib (NSC800729), alpelisib (NSC765974), duvelisib (NSC772469), copanlisib (NSC816437), ipatasertib (NSC767898), afuresertib (NSC778305), talazoparib (NSC767125), sapanisertib (NSC764658), selumetinib (NSC741078), tovorafenib (DAY101, NSC766906), vemurafenib (NSC761431), ravoxertinib (NSC781343), sotorasib (NSC818433), MRTX1133 (NSC 836407), abemaciclib (NSC 768073), palbociclib (NSC758247), venetoclax (NSC 766270), SY5609 (NSC837396), enzalutamide (NSC755605), and darolutamide (NSC825331), were obtained from the National Cancer Institute (NCI) Developmental Therapeutics Program Chemical Repository. The FDA-approved anticancer drug set is available from the NCI Developmental Therapeutics Program. […] The stock solutions were prepared in dimethyl sulfoxide (DMSO, Sigma-Aldrich, St. Louis, MO, cat. D2650) at 800-fold the tested concentration and stored at -70 degrees C prior to their use. All drugs and investigational agents were tested over a range starting from a high concentration at or near the clinical Cmax and decreasing in half-log increments. If the clinical Cmax for an agent had not been determined, the highest concentration tested was 10 microM.
Cell Culture. All cells were maintained in an incubator at 37 degrees C and 5% CO2 with 95% humidity. The PDC lines were cultured according to standard operating procedures established by the NCI PDMR (https://pdmr.cancer.gov/sops/default.htm). All PDCs were thawed and cultured in Matrigel-coated flasks prepared with a working solution of 1X Ham's F-12 nutrient mix, without supplementation (Invitrogen, Waltham, MA, cat. 11765054), 100 U/mL penicillin-streptomycin (Invitrogen, cat. 15140122), and 2.5% Matrigel (Corning Inc., Corning, NY, cat. 354248) for the first three passages. The 354836-022-R-J1-PDC, 475296-252-R-J1-PDC, and 997726-040-R-J2-PDC lines were cultured in 6A media, which includes advanced DMEM/F-12 (Thermo Fisher Scientific, cat. 12634028), 10 mM HEPES (Thermo Fisher Scientific, cat. 15630080), 1X GlutaMAX supplement (Thermo Fisher Scientific, cat. 35050061), 0.1 mg/mL primocin (InvivoGen, San Diego, CA, cat. ant-pm-2), 10% defined fetal bovine serum, heat inactivated (HyClone Laboratories Inc., Logan, UT, cat. SH30070.03HI), 50% L-WRN conditioned media (ATCC, cat. CRL-3276), 1.25 mM N-Acetyl-L-cysteine (Sigma-Aldrich, cat. A9165), 10 mM nicotinamide (Sigma-Aldrich, cat. N0636), 1X B-27 supplement (Thermo Fisher Scientific, cat. 17504044), 1X N-2 supplement (Thermo Fisher Scientific, cat. 17502048), and 10 microM Y-27632 dihydrochloride (Tocris Bioscience, Bristol, United Kingdom, cat. 1254). The 624824-186-R-J2-PDC line was cultured in 6C/Colon 1B media, which includes all 6A media components plus 50 ng/mL human EGF recombinant protein (Thermo Fisher Scientific, cat. PHG0311). […]

[1] = second compound 0.00316 µM, first compound 0.0316 µM
[2] = second compound 0.00316 µM, first compound 0.1 µM
[3] = second compound 0.01 µM, first compound 0.0316 µM
[4] = second compound 0.01 µM, first compound 0.1 µM
[5] = second compound 0.0316 µM, first compound 0.0316 µM
[6] = second compound 0.0316 µM, first compound 0.1 µM
[7] = second compound 0.1 µM, first compound 0.0316 µM
[8] = second compound 0.1 µM, first compound 0.1 µM
[9] = second compound 0.316 µM, first compound 0.0316 µM
[10] = second compound 0.316 µM, first compound 0.1 µM
[11] = second compound 1 µM, first compound 0.0316 µM
[12] = second compound 1 µM, first compound 0.1 µM
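Note: spheroids exposed to compounds for seven days before viability read.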
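Throughout, for viability, T/C: luminescence used as a proxy for viable cell amount; percent viability relative to DMSO vehicle control as 100%.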

IC50 (second compound 0.00316 µM): > 100 nM
IC50 (second compound 0.01 µM): > 100 nM
IC50 (second compound 0.0316 µM): > 100 nM
IC50 (second compound 0.1 µM): > 100 nM
IC50 (second compound 0.316 µM): > 100 nM
IC50 (second compound 1 µM): 79.6 nM
Structure (SMILES): CC(=O)c1c(C)c2cnc(Nc3ccc(N4CCNCC4)cn3)nc2n(C2CCCC2)c1=O + CC(Nc1ccc2c(c1)OCCn1cc(N3C(=O)OCC3C(F)F)nc1-2)C(N)=O
viability, T/C (second compound 0.00316 µM, first compound 0.000316 µM): 89.9%
viability, T/C (second compound 0.00316 µM, first compound 0.001 µM): 106%
viability, T/C (second compound 0.00316 µM, first compound 0.00316 µM): 103%
viability, T/C (second compound 0.00316 µM, first compound 0.01 µM): 93.9%
viability, T/C [1]: 96.5%
viability, T/C [2]: 93.3%
viability, T/C (second compound 0.01 µM, first compound 0.000316 µM): 105%
viability, T/C (second compound 0.01 µM, first compound 0.001 µM): 90.5%
viability, T/C (second compound 0.01 µM, first compound 0.00316 µM): 101%
viability, T/C (second compound 0.01 µM, first compound 0.01 µM): 96.4%
viability, T/C [3]: 96.7%
viability, T/C [4]: 92%
viability, T/C (second compound 0.0316 µM, first compound 0.000316 µM): 101%
viability, T/C (second compound 0.0316 µM, first compound 0.001 µM): 85.3%
viability, T/C (second compound 0.0316 µM, first compound 0.00316 µM): 95.8%
viability, T/C (second compound 0.0316 µM, first compound 0.01 µM): 87.5%
viability, T/C [5]: 92.8%
viability, T/C [6]: 81.2%
viability, T/C (second compound 0.1 µM, first compound 0.000316 µM): 82.2%
viability, T/C (second compound 0.1 µM, first compound 0.001 µM): 70%
viability, T/C (second compound 0.1 µM, first compound 0.00316 µM): 85.3%
viability, T/C (second compound 0.1 µM, first compound 0.01 µM): 92.5%
viability, T/C [7]: 87.8%
viability, T/C [8]: 76.5%
viability, T/C (second compound 0.316 µM, first compound 0.000316 µM): 73%
viability, T/C (second compound 0.316 µM, first compound 0.001 µM): 81.6%
viability, T/C (second compound 0.316 µM, first compound 0.00316 µM): 63.4%
viability, T/C (second compound 0.316 µM, first compound 0.01 µM): 64.8%
viability, T/C [9]: 70.9%
viability, T/C [10]: 68.8%
viability, T/C (second compound 1 µM, first compound 0.000316 µM): 58.7%
viability, T/C (second compound 1 µM, first compound 0.001 µM): 72.5%
viability, T/C (second compound 1 µM, first compound 0.00316 µM): 58.9%
viability, T/C (second compound 1 µM, first compound 0.01 µM): 57.7%
viability, T/C [11]: 57.8%
viability, T/C [12]: 48.2%

IC50 (second compound 0.00316 µM): > 10000 nM
IC50 (second compound 0.01 µM): > 10000 nM
IC50 (second compound 0.0316 µM): > 10000 nM
IC50 (second compound 0.1 µM): > 10000 nM
IC50 (second compound 0.316 µM): > 10000 nM
IC50 (second compound 1 µM): > 10000 nM
Structure (SMILES): CNC(=O)c1ccc(N2C(=S)N(c3ccc(C#N)c(C(F)(F)F)c3)C(=O)C2(C)C)cc1F + CC(Nc1ccc2c(c1)OCCn1cc(N3C(=O)OCC3C(F)F)nc1-2)C(N)=O
viability, T/C [1]: 82.9%
viability, T/C [2]: 95.5%
viability, T/C (second compound 0.00316 µM, first compound 0.316 µM): 103%
viability, T/C (second compound 0.00316 µM, first compound 1 µM): 93.1%
viability, T/C (second compound 0.00316 µM, first compound 3.16 µM): 89%
viability, T/C (second compound 0.00316 µM, first compound 10 µM): 110%
viability, T/C [3]: 100%
viability, T/C [4]: 88.6%
viability, T/C (second compound 0.01 µM, first compound 0.316 µM): 100%
viability, T/C (second compound 0.01 µM, first compound 1 µM): 88.2%
viability, T/C (second compound 0.01 µM, first compound 3.16 µM): 98.2%
viability, T/C (second compound 0.01 µM, first compound 10 µM): 102%
viability, T/C [5]: 98.3%
viability, T/C [6]: 81.9%
viability, T/C (second compound 0.0316 µM, first compound 0.316 µM): 80.1%
viability, T/C (second compound 0.0316 µM, first compound 1 µM): 87.9%
viability, T/C (second compound 0.0316 µM, first compound 3.16 µM): 92.1%
viability, T/C (second compound 0.0316 µM, first compound 10 µM): 86.4%
viability, T/C [7]: 79.4%
viability, T/C [8]: 85.4%
viability, T/C (second compound 0.1 µM, first compound 0.316 µM): 80.5%
viability, T/C (second compound 0.1 µM, first compound 1 µM): 77.8%
viability, T/C (second compound 0.1 µM, first compound 3.16 µM): 92.9%
viability, T/C (second compound 0.1 µM, first compound 10 µM): 72%
viability, T/C [9]: 65.1%
viability, T/C [10]: 70.8%
viability, T/C (second compound 0.316 µM, first compound 0.316 µM): 73.3%
viability, T/C (second compound 0.316 µM, first compound 1 µM): 74.2%
viability, T/C (second compound 0.316 µM, first compound 3.16 µM): 70.3%
viability, T/C (second compound 0.316 µM, first compound 10 µM): 64%
viability, T/C [11]: 55.5%
viability, T/C [12]: 59.3%
viability, T/C (second compound 1 µM, first compound 0.316 µM): 60.4%
viability, T/C (second compound 1 µM, first compound 1 µM): 61.5%
viability, T/C (second compound 1 µM, first compound 3.16 µM): 51.9%
viability, T/C (second compound 1 µM, first compound 10 µM): 53.5%
